The first assay concerns the target T1, hGPR119 (Homo sapiens, UniProt Q8TDV5).
T1 construct: expressed in transfected cells; host or cells: CHO
T1 sequence (Q8TDV5 1-335): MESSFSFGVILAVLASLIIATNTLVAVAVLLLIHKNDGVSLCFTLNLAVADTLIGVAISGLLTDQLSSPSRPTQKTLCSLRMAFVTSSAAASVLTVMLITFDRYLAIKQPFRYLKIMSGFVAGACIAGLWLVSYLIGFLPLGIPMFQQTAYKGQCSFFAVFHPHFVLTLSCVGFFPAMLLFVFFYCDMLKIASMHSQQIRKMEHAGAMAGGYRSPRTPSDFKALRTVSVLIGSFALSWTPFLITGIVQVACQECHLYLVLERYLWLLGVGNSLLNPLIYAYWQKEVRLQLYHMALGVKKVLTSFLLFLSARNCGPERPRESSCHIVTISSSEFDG
Kind of assay: In vitro cyclic AMP assay (Cisbio dynamic 2 HTRF kit) in CHO-hGPR119 cells. The settings on record: 1 h, cAMP, compound at 1 μM, 60 min, read-out: Induction (% induction at 1 μM). It is filed as cell-based.
Consider `CC(C)c1noc(N2CCC([C@@H](C)Oc3nc4ccc(-c5ccc(S(C)(=O)=O)nc5)nc4s3)C2)n1` (stereo partly drawn) [Compound 1140, 2-((R)-1-(1-(3-isopropyl-1,2,4-oxadiazol-5-yl)pyrrolidin-3-yl)ethoxy)-5-(6-(methylsulfonyl)pyridin-3-yl)thiazolo[5,4-b]pyridine], for which the activation at 1 µM is 4%.

As for `Cc1cc(S(C)(=O)=O)ccc1-c1ccc2nc(O[C@H](C)C3CCN(c4nc(C(C)C)no4)CC3)sc2n1` [Compound 1169, 2-((R)-1-(1-(3-isopropyl-1,2,4-oxadiazol-5-yl)piperidin-4-yl)ethoxy)-5-(2-methyl-4-(methylsulfonyl)phenyl)thiazolo[5,4-b]pyridine], the activation at 1 µM worked out at 43%. Still for that read-out and setting: to `CC(C)c1noc(N2CCC(COc3nc4ccc(-c5ccncc5)nc4s3)CC2)n1` [Compound 1083, 3-isopropyl-5-(4-(((5-(pyridin-4-yl)thiazolo[5,4-b]pyridin-2-yl)oxy)methyl)piperidin-1-yl)-1,2,4-oxadiazole] belongs 14%; to `CC(C)c1noc(N2CCC([C@H](C)Oc3nc4ccc(-c5ccc(S(C)(=O)=O)nc5)nc4s3)C2)n1` (stereo partly drawn) [Compound 1141, 2-((S)-1-(-(3-isopropyl-1,2,4-oxadiazol-5-yl)pyrrolidin-3-yl)ethoxy)-5-(6-(methylsulfonyl)pyridin-3-yl)thiazolo[5,4-b]pyridine], 3%. Still for that read-out and setting: the same measure for `CC(C)c1nnc(N2CCC(C(C)Oc3nc4ccc(-c5ccc(S(C)(=O)=O)cc5)nc4s3)CC2)o1` (stereo not shown) [Compound 1097, 2-isopropyl-5-(4-(1-((5-(4-(methylsulfonyl)phenyl)thiazolo[5,4-b]pyridin-2-yl)oxy)ethyl)piperidin-1-yl)-1,3,4-oxadiazole]: 34%; for `CCc1ccc(N2CCC(C(C)Oc3nc4ccc(-c5ccc(S(C)(=O)=O)cc5)nc4s3)CC2)nc1` (stereo not shown) [Compound 1087, 2-(1-(1-(5-ethylpyridin-2-yl)piperidine-4-yl)ethoxy)-5-(4-(methylsulfonyl)phenyl)thiazolo[5,4-b]pyridine]: 74%.

In the case of `CC(C)c1noc(N2CCC(COc3nc4ccc(-c5ccncc5F)nc4s3)CC2)n1` [Compound 1084, 5-(4-(((5-(3-fluoropyridin-4-yl)thiazolo[5,4-b]pyridin-2-yl)oxy)methyl)piperidin-1-yl)-3-isopropyl-1,2,4-oxadiazole], the activation at 1 µM amounted to 12%. Same read-out and setting: to `CC(C)c1noc(N2CCC(Oc3nc4ccc(Oc5ccc(S(C)(=O)=O)cc5)nc4s3)CC2)n1` [Compound 1005, 3-isopropyl-5-(4-((5-(4-(methylsulfonyl)phenoxy)thiazolo[5,4-b]pyridin-2-yl)oxy)piperidin-1-yl)-1,2,4-oxadiazole] belongs 6%. Same read-out and setting: to `CC(C)OC(=O)N1CC=C(CCOc2nc3ccc(-c4ccc(S(C)(=O)=O)cc4)nc3s2)CC1` [Compound 1034, isopropyl 4-(2-((5-(4-(methylsulfonyl)phenyl)thiazolo[5,4-b]pyridin-2-yl)oxy)ethyl)-5,6-dihydropyridine-1(2H)-carboxylate] belongs 0.3%.

As to `CC(C)c1nc(N2CCC(C(C)Oc3nc4ccc(-c5ccc(S(C)(=O)=O)cc5)nc4s3)CC2)no1` (stereo not shown) [Compound 1058, 5-isopropyl-3-(4-(1-((5-(4-(methylsulfonyl)phenyl)thiazolo[5,4-b]pyridin-2-yl)oxy)ethyl)piperidin-1-yl)-1,2,4-oxadiazole], the activation at 1 µM is 48%.

As for `CN(C)C(=O)N1CC=C(c2nc3ccc(-c4ccc(S(C)(=O)=O)cc4)nc3s2)CC1` [Compound 1027, N,N-dimethyl-4-(5-(4-(methylsulfonyl)phenyl)thiazolo[5,4-b]pyridin-2-yl)-5,6-dihydropyridine-1(2H)-carboxamide], the activation at 1 µM turned out to be 3%. Still for that read-out and setting: the same measure for `CNS(=O)(=O)c1ccc(-c2ccc3nc(N4CCC(c5nc(C(C)C)no5)CC4)sc3n2)cc1` [Compound 1072, 4-(2-(4-(3-isopropyl-1,2,4-oxadiazol-5-yl)piperidin-1-yl)thiazolo[5,4-b]pyridin-5-yl)-N-methylbenzenesulfonamide]: 17%; for `CC(C)c1noc(N2CCC([C@H](C)Oc3nc4ccc(-c5ccc(S(=O)(=O)C6CC6)cc5)nc4s3)CC2)n1` [Compound 1095, (S)-5-(4-(1-((5-(4-(cyclopropylsulfonyl)phenyl)thiazolo[5,4-b]pyridin-2-yl)oxy)ethyl)piperidin-1-yl)-3-isopropyl-1,2,4-oxadiazole]: 84%. With `CCCc1cnc(N2CCC(C(C)Oc3nc4ccc(-c5ccc(S(C)(=O)=O)cc5)nc4s3)CC2)nc1` (stereo not shown) [Compound 1053, 5-(4-(methyslulfonyl)phenyl)-2-(1-(1-(5-propylpyrimidin-2-yl)piperidin-4-yl)ethoxy)thiazolo[5,4-b]pyridine], the activation at 1 µM worked out at 73%. The same measure, in the same setting: the same measure for `CC(Oc1nc2ccc(-c3ccc(S(C)(=O)=O)cc3)nc2s1)C1CCN(c2nc(C(F)(F)F)no2)CC1` (stereo not shown) [Compound 1131, 5-(4-(1-((5-(4-(methylsulfonyl)phenyl)thiazolo[5,4-b]pyridin-2-yl)oxy)ethyl)piperidin-1-yl)-3-(trifluoromethyl)-1,2,4-oxadiazole]: 40%; for `CC(C)c1noc(N2CC[C@@H](COc3nc4ccc(-c5ccc(S(C)(=O)=O)cc5)nc4s3)[C@H](F)C2)n1` [Compound 1129, 5-((3S,4S)-3-fluoro-4-(((5-(4-(methylsulfonyl)phenyl)thiazolo[5,4-b]pyridin-2-yl)oxy)methyl)piperidin-1-yl)-3-isopropyl-1,2,4-oxadiazole]: 5%; for `CC(C)c1nsc(N2CCC(C(C)Oc3nc4ccc(-c5ccc(S(C)(=O)=O)cc5)nc4s3)CC2)n1` (stereo not shown) [Compound 1107, 2-(1-(1-(3-isopropyl-1,2,4-thiadiazol-5-yl)piperidin-4-yl)ethoxy)-5-(4-(methylsulfonyl)phenyl)thiazolo[5,4-b]pyridine]: 12%. Regarding `CC(C)c1noc(C2CCN(c3nc4ccc(-c5ccncc5)nc4s3)CC2)n1` [Compound 1077, 3-isopropyl-5-(1-(5-(pyridin-4-yl)thiazolo[5,4-b]pyridin-2-yl)piperidin-4-yl)-1,2,4-oxadiazole], the activation at 1 µM worked out at 12%. Still for that read-out and setting: to `CC(C)c1noc(C2CCC(C(C)Oc3nc4ccc(-c5ccc(S(C)(=O)=O)cc5)nc4s3)CC2)n1` (stereo not shown) [Compound 1105, 3-isopropyl-5-(4-(1-((5-(4-(methylsulfonyl)phenyl)thiazolo[5,4-b]pyridin-2-yl)oxy)ethyl)cyclohexyl)-1,2,4-oxadiazole] belongs 13%; to `CC(C)c1noc(N2CC=C(CCOc3nc4ccc(-c5ccc(S(C)(=O)=O)cc5)nc4s3)CC2)n1` [Compound 1035, 3-isopropyl-5-(4-(2-((5-(4-(methylsulfonyl)phenyl)thiazolo[5,4-b]pyridin-2-yl)oxy)ethyl)-5,6-dihydropyridin-1(2H)-yl)-1,2,4-oxadiazole], 2%. With `CC(C)c1noc(N2CCC(C(C)Oc3nc4ccc(-c5cnc(S(C)(=O)=O)cn5)nc4s3)CC2)n1` (stereo not shown) [Compound 1158, 2-(1-(1-(3-isopropyl-1,2,4-oxadiazol-5-yl)piperidin-4-yl)ethoxy)-5-(5-(methylsulfonyl)pyrazin-2-yl)thiazolo[5,4-b]pyridine], the activation at 1 µM was found to be 80%.

The same assay, now with this note: cAMP.
`CCCc1cnc(N2CCC(C(C)Oc3nc4ccc(-c5ccc(S(C)(=O)=O)cc5)nc4s3)CC2)nc1` (stereo not shown) [Compound 1053, 5-(4-(methyslulfonyl)phenyl)-2-(1-(1-(5-propylpyrimidin-2-yl)piperidin-4-yl)ethoxy)thiazolo[5,4-b]pyridine]: the half-maximal effective concentration (EC50) fell in the range of 50 to 100 nM.

The values are drawn from patent US10526345B2, “Compounds as GPR119 agonists” (Mankind Pharma Ltd., priority 2016, dated 2020).
